# According to patent US11866459B2, “Cocrystal of progesterone and preparation method and use thereof” (NATIONAL INSTITUTES FOR FOOD AND DRUG CONTROL, priority 2020, dated 2024):
# Structures can show the parent of a compound that is named as a salt. Where two headings read alike, the source gives them in different places.
# Key:
# [1] = Determination of the dissolution rate (dissolution curves, stirring paddle method, HPLC); settings: for time at which the highest concentration was reached / highest value of concentration of progesterone on dissolution curve: 37±0.5° C.; for highest value of concentration of progesterone on dissolution curve: 50 to 100 rpm
# Method: (§1) The present invention involves the following detection instruments: • Single-crystal X-ray diffractometer: Bruker P4, Mo target, \ω scan, 296.15K; • Fourier infrared spectrometer: PerkinElmer Frontier FT/IR Spectrometer, normal temperature, KBr pellets, wavelength of 4000 to 450 cm^−1; • Powder X-ray diffractometer: Rigaku D/max-25509 kw, CuKα radiation, graphite monochromator; • Differential scanning calorimetry analyzer: Mettler Toledo DSC 822e, heating rate of 10° C./min, nitrogen flow rate of 50 mL/min; • Dynamic vapour sorption analyzer: SMS DVS advantage, 25° C.; • Dissolution apparatus: Tianjin Tianda Tianfa Technology Co., Ltd. RC806D, stirring paddle method; • Drug permeation rate tester: Pion Inc μFlux™.
# The two dissolution media are water and pH 1.2 hydrochloric acid solution, respectively. […] The content of progesterone at the wavelength of 241 nm was measured by the HPLC method, and the dissolution amount was calculated by the external standard method. Dissolution curves with time as the abscissa and the concentration of progesterone as the ordinate were respectively plotted, as shown in FIGS. 5 and 6.
# [2] = Determination of hygroscopicity by dynamic vapour sorption analysis; assay type: physicochemical; settings: 25° C.
# Method: The nitrogen flow rate was 200 ml/min, and the relative humidity, varied in a stepped manner by a change of 10%, increased from 20% to 80%, and then dropped to 0%.
# [3] = in vitro; settings: PAMPA; for permeability level compared with metoprolol / permeation rate relative to the progesterone monomer: pH 6.8
# Method: as §1
# Since the pH of fasting intestinal fluid in a human body is 6.5 and the pH of blood is 7.4, in order to make the conditions under which the permeation rate was measured close to the environment of the human gastrointestinal tract, pH 6.8 phosphate buffer was selected as the medium in the experiment. 3 mg of progesterone monomers and cocrystals of progesterone equivalent to 3 mg of progesterone were accurately weighed, and respectively placed in a donor compartment that represents the gastrointestinal tract, and 20 ml of pH 6.8 phosphate buffer was accurately added. 20 ml of pH 7.4 ASB buffer was accurately added to a receptor compartment that represents blood. The two compartments were separated by a biomimetic membrane with an area of 1.54 cm^2. The biomimetic membrane was coated with 25 μl of simulated gastrointestinal liposomes for infiltration, which represents the cell membrane of the gastrointestinal tract. At the temperature of 37° C. and the stirring speed of 200 rpm, sampling was conducted for 4 h, with an interval of 60 s between each two sampling procedures. The drug concentration in the receptor compartment was measured with a fiber optic probe within the ultraviolet wavelength range of 250 to 350 nm. The artificial membrane permeation rate of the drug was calculated according to Formula 1 (J/Flux).
# [formula] represents the rate of change of drug concentration in the receptor compartment per unit time (μg·mL^−1·min^−1); V is the volume of buffer in the receptor compartment (mL); A is the area of the biomimetic membrane (cm^2); and Ct is the initial concentration of the drug in the donor compartment (μg·mL^−1).
# The level of drug permeability can be determined by comparing the permeability of the drug with that of metoprolol measured by the same method.
# [4] = tested on: Female immature white rabbits; experiment: Pharmacodynamic experiment of cocrystals of progesterone: rabbit body weight and uterine index; assay type: in vivo; settings: for Uterine index (weight of uterus / weight of rabbit): x ± s
# Method: Female immature white rabbits were used and randomly divided into blank group, positive control group, low dose group, medium dose group and high dose group, with 10 rabbits in each group. The dose of progesterone that should be given to each rabbit is twice the clinical human dose of progesterone, and is calculated according to the rabbit's body weight. […] The intramuscular injections were performed for a consecutive 30 days. Weighing was performed on day 1 and day 30 respectively. A part of the uterine tissue 2 cm from the junction of the uterus and vagina in the direction of the ovary was cut and weighed. The uterine index was calculated by dividing the weight of the uterus by the weight of each rabbit.
# [5] = pH 1.2 hydrochloric acid solution
Compound,"time at which the highest concentration was reached [1, 5] [min]","highest value of concentration of progesterone on dissolution curve [1, 5] [µg/mL]",time at which the highest concentration was reached ([1]; water) [min],highest value of concentration of progesterone on dissolution curve ([1]; water) [µg/mL],"Papp at 4 h, 150 µg/mL [3] [×10⁻⁶ cm/s]",permeability level compared with metoprolol [3],solubility relative to the progesterone monomer [1] [times],solubility relative to the progesterone monomer ([1]; pH 1.2) [times],effective permeability (Pe) [3] [×10⁻⁶ cm/s],"permeation rate (J, Flux) [3] [μg·min^−1·cm^−2]",permeation rate relative to the progesterone monomer [3] [times],other results
CC(=O)[C@H]1CC[C@H]2[C@@H]3CCC4=CC(=O)CC[C@]4(C)[C@H]3CC[C@]12C.O=C(O)c1cccc([N+](=O)[O-])c1C(=O)O [progesterone-3-nitrophthalic acid cocrystal],30,10.4,90,9.90,,high permeability,1.3,1.3,1460,0.28,0.9,
progesterone-isophthalic acid cocrystal,,,,,,,,,,,,"Uterine index (weight of uterus / weight of rabbit) ([4]; 3.5 mg·kg^−1 intramuscular for 30 consecutive days, low dose group): 0.025 ± 0.009%; Uterine index (weight of uterus / weight of rabbit) ([4]; 7 mg·kg^−1 intramuscular for 30 consecutive days, medium dose group): 0.029 ± 0.009 %; Uterine index (weight of uterus / weight of rabbit) ([4]; 14 mg·kg^−1 intramuscular for 30 consecutive days (high dose group / positive control group)): 0.035 ± 0.008%; change of uterine index of rabbits as the dose increased ([4]; 3.5, 7 and 14 mg·kg^−1 intramuscular, 30 days): increasing trend; statistical difference in uterine index versus positive control group ([4]; high dose group, 14 mg·kg^−1): no significant difference; statistical difference in uterine index versus positive control group ([4]; low dose group, 3.5 mg·kg^−1): significant differences; statistical difference in uterine index versus positive control group ([4]; medium dose group, 7 mg·kg^−1): no significant difference"
"COCCc1ccc(OCC(O)CNC(C)C)cc1 (stereo not shown) [metoprolol tartrate, reference compound]",,,,,120,,,,,,,

# More lines, main results first:
"time at which the highest concentration was reached [1, 5] [min]","highest value of concentration of progesterone on dissolution curve [1, 5] [µg/mL]",time at which the highest concentration was reached ([1]; water) [min],highest value of concentration of progesterone on dissolution curve ([1]; water) [µg/mL],"Papp at 4 h, 150 µg/mL [3] [×10⁻⁶ cm/s]",permeability level compared with metoprolol [3],solubility relative to the progesterone monomer [1] [times],solubility relative to the progesterone monomer ([1]; pH 1.2) [times],effective permeability (Pe) [3] [×10⁻⁶ cm/s],"permeation rate (J, Flux) [3] [μg·min^−1·cm^−2]",permeation rate relative to the progesterone monomer [3] [times],Compound,other results
120,7.87,120,7.84,1110,high permeability,,,,,,"CC(=O)[C@H]1CC[C@H]2[C@@H]3CCC4=CC(=O)CC[C@]4(C)[C@H]3CC[C@]12C [progesterone, pregn-4-ene-3,20-dione]","hygroscopicity ([2]; dynamic vapour sorption): non-hygroscopic; change in relative mass (dynamic vapour sorption) ([2]; relative humidity 20% to 80% then to 0% in 10% steps): less than 0.2%; permeation rate (J, Flux) ([3]; 4 h, 150 µg/mL): 0.32 μg·min^−1·cm^−2"
120,8.77,60,9.06,,high permeability,1.2,1.1,887,0.62,1.9,CC(=O)[C@H]1CC[C@H]2[C@@H]3CCC4=CC(=O)CC[C@]4(C)[C@H]3CC[C@]12C.O=Cc1ccc(B(O)O)cc1 [progesterone-4-formylbenzeneboronic acid cocrystal],
